Laboratory results published in US4206215A, “Antimicrobial bis-[4-(substituted-amino)-1-pyridinium]alkanes” (Sterling Drug Inc., priority 1977, dated 1980).
Where two headings read alike, the source gives them in different places.

Assays:
T. menta. 9129 = experiment: In vitro antifungal activity, MIC (modified Autotiter method); type: cell-based, Trichophyton mentagrophytes; settings: 18-20 hours at 37° C.; for MIC: Trichophyton mentagrophytes, 20 h, read-out: MIC T. menta. 9129
In short: (§1)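 Autotiter-based broth dilution, modified from Goss: 1,000 mcg./ml. stock, twofold steps in sterile water, then inoculated 2x semisynthetic medium (glucose) dispensed automatically. Final range 500–0.06 mcg./ml.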

P. mirab. MGH-1 = experiment: In vitro antibacterial activity, MIC (modified Autotiter method); type: cell-based, Proteus mirabilis; settings: 18-20 hours at 37° C.; for MIC: Proteus mirabilis, 20 h, read-out: MIC P. mirab. MGH-1
In short: as §1

[1] = tested on: Streptococcus mutans OMZ-61; experiment: Dental plaque-preventive effectiveness in the presence of sterile human saliva (50%); type: cell-based; settings: for Dental Plaque Preventive Activity in 50% saliva Minimum Effective Conc. (%): 50% sterile human saliva
In short: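 Hydroxylapatite or enamel pieces soaked in 1.0% or 0.1% compound solution (two 1-min soaks with air drying, 5-min water rinse), then incubated anaerobically at 37° C with S. mutans in sucrose beef-extract medium; cycle repeated for 48 h total. Plaque scored by red dye staining; minimum effective concentration found by lower doses.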

S. pyogen. C203 = experiment: In vitro antibacterial activity, MIC (modified Autotiter method); type: cell-based, Streptococcus pyogenes; settings: 18-20 hours at 37° C.; for MIC: Streptococcus pyogenes, 20 h, read-out: MIC S. pyogen. C203
In short: as §1

C. albicans Wisc. = experiment: In vitro antifungal activity, MIC (modified Autotiter method); type: cell-based, Candida albicans; settings: 18-20 hours at 37° C.; for MIC: Candida albicans, 20 h, read-out: MIC C. albicans Wisc.
In short: as §1

C. albicans 10231 = experiment: as above; type: cell-based, Candida albicans; settings: Candida albicans, 10231, 20 h, 18-20 hours at 37° C.; read-out: MIC C. albicans 10231
In short: as §1

E. Coli ATCC 8739 = experiment: Effect of serum on bacteriostatic activity (serial tube dilution test); type: cell-based, Escherichia coli; settings: for Fold Increase in MIC E. Coli ATCC 8739: 40% vs 0% horse serum; for MIC: Escherichia coli, ATCC8739
In short: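 Bacteriostatic potency against Escherichia coli ATCC 8739 was measured with the standard serial tube dilution test. Minimum inhibitory concentrations were determined in pairs, with the test medium either lacking serum or containing 40% horse serum heat-inactivated at 56° C. for 30 min. Serum impact was reported as the fold increase in MIC (mcg./ml.).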

K. pneum. 39645 = experiment: In vitro antibacterial activity, MIC (modified Autotiter method); type: cell-based, Klebsiella pneumoniae; settings: Klebsiella pneumoniae, 20 h, 18-20 hours at 37° C.; read-out: MIC K. pneum. 39645
In short: as §1

[2] = Acute oral toxicity (ALD50); type: in vivo; settings: mouse, in vivo, po, mice, read-out: 7-Day ALD50
Description: (§2) The acute oral toxicity (ALD50) of several representative examples was determined as follows: Groups of 3 young adult male Swiss-Webster strain albino mice were fasted approximately 4 hours before medication and then medicated once orally by stomach tube.

[3] = tested on: young adult male Swiss-Webster strain albino mice; experiment: Acute oral toxicity (ALD50); type: in vivo
Description: as §2

E. coli 100/B22 = experiment: In vitro antibacterial activity, MIC (modified Autotiter method); type: cell-based, Escherichia coli; settings: for MIC E. coli 100/B22: 18-20 hours at 37° C.; for MIC: Escherichia coli, 100/B22, 20 h, read-out: MIC E. coli 100/B22, 18-20 hours at 37° C.
In short: as §1

[4] = 40% heat inactivated horse serum, read-out: MIC E. Coli ATCC 8739 40% Serum
[5] = read-out: MIC E. Coli ATCC 8739 0% Serum
[6] = suspension in 1% gum tragacanth
[7] = 125 mg/kg oral, suspension in 1% G.T.
[8] = 250 mg/kg oral, suspension in 1% G.T.
[9] = 500 mg/kg oral, suspension in 1% G.T.
[10] = 1000 mg/kg oral, suspension in 1% G.T.
[11] = 125 mg/kg oral, aqueous solution
[12] = 250 mg/kg oral, aqueous solution
[13] = 500 mg/kg oral, aqueous solution

Structure (SMILES) | MIC (T. menta. 9129) | MIC (P. mirab. MGH-1) | Dental Plaque Preventive Activity in 50% saliva Minimum Effective Conc. (%) [1] | MIC (S. pyogen. C203) | MIC (C. albicans Wisc.) | MIC (C. albicans 10231) | Fold Increase in MIC E. Coli ATCC 8739 (E. Coli ATCC 8739) | MIC (E. Coli ATCC 8739; [4]) | MIC (E. Coli ATCC 8739; [5]) | MIC (K. pneum. 39645) | LD50 at 168 h [2, 6] | Mortality 7 Days [3, 7] | Mortality 24 Hrs [3, 7] | Mortality 7 Days [3, 8] | Mortality 24 Hrs [3, 8] | Mortality 7 Days [3, 9] | Mortality 24 Hrs [3, 9] | Mortality 7 Days [3, 10] | Mortality 24 Hrs [3, 10] | MIC (E. coli 100/B22) | also measured
CCCCCCCCNc1cc[n+](CCCCCCCC[n+]2ccc(NCCCCCCCC)cc2)cc1 [Example 11, 1,8-bis-[4-(octylamino)-1-pyridinium]octane dibromide] | 0.5 µg/mL | 7.8 µg/mL | 0.05% | 1 µg/mL | 1 µg/mL | 1 µg/mL | 64 fold | 31.2 µg/mL | 0.5 µg/mL | 1.95 µg/mL | > 1000 mg/kg | 0/3 | 0/3 | 0/3 | 0/3 | 1/3 | 0/3 | 0/3 | 0/3 |  | MIC E. coli 100/B22 (E. coli 100/B22): 1.95 µg/mL
CCCCCCCNc1cc[n+](CCCCCCCCC[n+]2ccc(NCCCCCCC)cc2)cc1 [Example 24, 1,9-bis-[4-(heptylamino)-1-pyridinium]nonane dibromide] | 0.5 µg/mL |  | Ca. 0.005% | 0.5 µg/mL | 1 µg/mL | 1 µg/mL | 32 fold | 7.8 µg/mL | 0.25 µg/mL | 1.95 µg/mL | > 1000 mg/kg | 0/3 | 0/3 | 0/3 | 0/3 | 1/3 | 0/3 | 0/3 | 0/3 | 1.95 µg/mL | MIC P. mirab. MGH-1 (P. mirab. MGH-1): 15.6 µg/mL
CCCCCCCNc1cc[n+](CCCCCCCCCCCC[n+]2ccc(NCCCCCCC)cc2)cc1 [Example 3, 1,12-bis-[4-(heptylamino)-1-pyridinium]dodecane dibromide] |  | 3.13 µg/mL | 0.1% |  | 3.13 µg/mL | 1.56 µg/mL | 32 fold | 25 µg/mL | 0.78 µg/mL | 3.13 µg/mL | 1000 mg/kg | 0/3 | 0/3 | 0/3 | 0/3 | 1/3 | 0/3 | 1/3 | 1/3 |  | MIC T. menta. 9129 (T. menta. 9129): 1.56 µg/mL; MIC S. pyogen. C203 (S. pyogen. C203): 0.39 µg/mL; LD50 at 168 h ([2]; aqueous solution): 315 mg/kg; Mortality 7 Days [3, 11]: 0/3; Mortality 24 Hrs [3, 11]: 0/3; Mortality 7 Days [3, 12]: 1/3; Mortality 24 Hrs [3, 12]: 1/3; Mortality 7 Days [3, 13]: 3/3; Mortality 24 Hrs [3, 13]: 2/3; MIC E. coli 100/B22 (E. coli 100/B22): 3.13 µg/mL
CCCCCCNc1cc[n+](CCCCCCCCCCCCCC[n+]2ccc(NCCCCCC)cc2)cc1 [Example 5C, 1,14-bis-[4-(hexylamino)-1-pyridinium]tetradecane dibromide] | 0.76 µg/mL |  | 0.05% | 1 µg/mL |  | 1.5 µg/mL | 32 fold | 25 µg/mL | 0.78 µg/mL | 0.76 µg/mL | > 1000 mg/kg | 0/3 | 0/3 | 0/3 | 0/3 | 0/3 | 0/3 | 1/3 | 1/3 | 0.76 µg/mL | MIC P. mirab. MGH-1 (P. mirab. MGH-1; listed as SC): 1.5 µg/mL; Plaque formation in 50% saliva plaque test (footnote 1) ([1]; 0.005%, 50% saliva): plaque formed; Bacterial growth in 50% saliva plaque test (footnote 1) ([1]; 0.05% concentration, 50% saliva): No bacterial growth; MIC C. albicans Wisc. (C. albicans Wisc.; listed as SC): 0.76 µg/mL
CCCCC(CC)CNc1cc[n+](CCCCCCCCCC[n+]2ccc(NCC(CC)CCCC)cc2)cc1 (stereo not shown) [Example 58, 1,10-bis-[4-(2-ethylhexylamino)-1-pyridinium]decane dibromide] | 0.76 µg/mL | 12.1 µg/mL | Ca. 0.005% | 1.95 µg/mL | 1.5 µg/mL | 3 µg/mL | 32 fold | 15.6 µg/mL | 0.5 µg/mL | 3 µg/mL | > 1000 mg/kg | 0/3 | 0/3 | 0/3 | 0/3 | 0/3 | 0/3 | 0/3 | 0/3 | 0.76 µg/mL | 
